Data set [1] is described as follows: Kinetic aqueous solubility of compound at pH 7.4. It counts as physicochemical. The following applies: read-out: Kinetic_solubility.
Data set [2] can be described thus: Metabolic stability in human hepatocytes assessed as compound remaining measured after 60 mins. The following applies: read-out: Stability. The class given is ADME, cell-based, Hepatocyte.
Data set [3] in a line: Lipophilicity, logD of compound at pH 7.4. The class given is physicochemical. The following applies: buffer.
The nature of data set [4]: Kinetic aqueous solubility of compound at pH 4.5. It counts as physicochemical. Conditions: read-out: Kinetic_solubility.

≈ marks a conversion by molar mass, not a printed value.

For `Cc1ccc(NC(=O)N2CCO[C@@H](C(F)(F)F)C2)cc1-c1cc(OCCO)nc(N2CCOCC2)c1`, in data set [1], the solubility kinetic was 56 µM (≈ 28.6 µg/mL). For the same compound, the remaining at 1 h in data set [2] came to 54%.

Regarding `Cc1ccc(NC(=O)N2CC[C@@H](CC(F)(F)F)C2)cc1-c1cc(OCCO)nc(N2CCOCC2)c1`, the logD in data set [3] is 3.73. Further, the results for the solubility kinetic in data set [4] and in data set [1] were 35 µM (≈ 17.8 µg/mL) and 39 µM (≈ 19.8 µg/mL), respectively. Moreover, the remaining at 1 h in data set [2] is 19%.

Compound `Cc1ccc(NC(=O)N2CC[C@@H](CC(F)(F)F)C2)cc1-c1cc(O[C@@H](C)CO)nc(N2CCOCC2)c1` returned a logD in data set [3] of 3.84. Besides, in data set [1], the solubility kinetic was 56 µM (≈ 29.3 µg/mL). In data set [2], the remaining at 1 h was found to be 45%.

Regarding `Cc1ccc(NC(=O)N2CC[C@@H](CC(F)(F)F)C2)cc1-c1cc(OCC(C)(C)O)nc(N2CCOCC2)c1`, the log distribution coefficient (logD) in data set [3] came out at 3.86. Further, the solubility kinetic in data set [1] is 15 µM (≈ 8.05 µg/mL). The remaining at 1 h in data set [2] stood at 62%.

Regarding `Cc1ccc(NC(=O)N2CC[C@@H](CC(F)(F)F)C2)cc1-c1cc(OC[C@@H](C)O)nc(N2CCOCC2)c1`, in data set [3], the logD is 3.94. For the same compound, the solubility kinetic came to 26 µM (≈ 13.6 µg/mL) in data set [4] and 23 µM (≈ 12 µg/mL) in data set [1]. Also, in data set [2], the remaining at 1 h worked out at 23%.

`Cc1ccc(NC(=O)N2CCO[C@H](C(F)(F)F)C2)cc1-c1cc(OCCO)nc(N2CCOCC2)c1` had a logD in data set [3] of 3.46. The solubility kinetic in data set [1] amounted to 62 µM (≈ 31.7 µg/mL). Moreover, the remaining at 1 h in data set [2] was determined as 93%.
